Data taken from patent publication US6706664B1, “Benzoxazole compounds, process for the preparation thereof and herbicides” (UBE Industries, Ltd., priority 1999, dated 2004).

Experiments:
Design in all cases: key: 0: normal development; 1: Less damaged; 2: Slightly damaged; 3: Moderately damaged; 4: Severely damaged; 5: All killed
common lambsquartes = assay: Soil treatment test for upland field; assay type: in vivo, Chenopodium album; conditions: 500 g/ha, glass house 25° C., 3 weeks
Summary of the method: (§1)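 Compounds were formulated as wettable powders and applied pre-emergence to the surface of freshly sown alluvial soil at 500 g/ha. After three weeks in a glass house averaging 25° C, damage was rated from 0 (normal development) to 5 (all killed).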

young rice plant = assay: Herbicidal test for paddy field; assay type: in vivo; conditions: paddy field pot, 500 g/ha dropwise at 1.5 leaf stage of barnyardgrass, 3 weeks, rank vs non-treated
Summary of the method: (§2)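 Post-flooding water application of 500 g/ha, given at 1.5-leaf barnyardgrass, to plants in Ube alluvial soil held under 3 cm of water. Ratings of 0 to 5 relative to untreated controls were made after three weeks in a glasshouse.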

monochoria = assay: Herbicidal test for paddy field; assay type: in vivo, Monochoria vaginalis; conditions: paddy field pot, 500 g/ha dropwise at 1.5 leaf stage of barnyardgrass, 3 weeks, rank vs non-treated
Summary of the method: as §2

annual bluegrass = assay: Soil treatment test for upland field; assay type: in vivo, Poa annua; conditions: 500 g/ha, glass house 25° C., 3 weeks
Summary of the method: as §1

wheat = assay: Soil treatment test for upland field; assay type: in vivo; conditions: 500 g/ha, glass house 25° C., 3 weeks
Summary of the method: as §1

solgum = assay: Soil treatment test for upland field; assay type: in vivo; conditions: 500 g/ha, glass house 25° C., 3 weeks
Summary of the method: as §1

cotton = assay: Soil treatment test for upland field; assay type: in vivo; conditions: 500 g/ha, glass house 25° C., 3 weeks
Summary of the method: as §1

soybean = assay: Soil treatment test for upland field; assay type: in vivo; conditions: 500 g/ha, glass house 25° C., 3 weeks
Summary of the method: as §1

corn = assay: Soil treatment test for upland field; assay type: in vivo; conditions: 500 g/ha, glass house 25° C., 3 weeks
Summary of the method: as §1

flat sedge = assay: Herbicidal test for paddy field; assay type: in vivo, Cyperus serotinus; conditions: paddy field pot, 500 g/ha dropwise at 1.5 leaf stage of barnyardgrass, 3 weeks, rank vs non-treated
Experimental: Wagner pots, each having an area of 1/5000 are, were packed with Ube soil (alluvial soil) and planted with seeds or tubers of young rice plant, barnyardgrass, bulrush, flat sedge and monochoria. Then, the pots were filled with water to a depth of 3 cm.
Each wettable powder of the desired compounds (I) shown in Table 1 prepared in accordance with Example 2 was diluted with water containing a surfactant (0.05%) and subjected to dropwise addition treatment by using pipet so that an effective concentration of the compound (I) in each herbicide became 500 g/ha at 1.5 leaf stage of barnyardgrass.
These plants were controlled in a glass house at an average temperature of 25° C. for 3 weeks, and then herbicidal effects thereof were investigated.
The herbicidal effects are evaluated according to the following 6 ranks as compared with non-treated district.
(0: normal development, 1: Less damaged, 2: Slightly damaged, 3: Moderately damaged, 4: Severely damaged, 5: All killed).

green foxtail = assay: Soil treatment test for upland field; assay type: in vivo, Setaria viridis; conditions: 500 g/ha, glass house 25° C., 3 weeks
Summary of the method: as §1

blackgrass = assay: Soil treatment test for upland field; assay type: in vivo, Alopecurus aegualis; conditions: 500 g/ha, glass house 25° C., 3 weeks
Summary of the method: as §1

bulrush = assay: Herbicidal test for paddy field; assay type: in vivo, Scrips juncoides; conditions: paddy field pot, 500 g/ha dropwise at 1.5 leaf stage of barnyardgrass, 3 weeks, rank vs non-treated
Summary of the method: as §2

Large crabgrass = assay: Soil treatment test for upland field; assay type: in vivo, Digitaria adscendens; conditions: 500 g/ha, glass house 25° C., 3 weeks
Summary of the method: as §1

barnyardgrass [1] = assay: Soil treatment test for upland field; assay type: in vivo, Echinochloa crusgalli; conditions: 500 g/ha, glass house 25° C., 3 weeks
Summary of the method: as §1

barnyardgrass [2] = assay: Herbicidal test for paddy field; assay type: in vivo, Echinochloa crusgalli; conditions: paddy field pot, 500 g/ha dropwise at 1.5 leaf stage of barnyardgrass, 3 weeks, rank vs non-treated
Summary of the method: as §2

livid amaranth = assay: Soil treatment test for upland field; assay type: in vivo, Amaranthus lividus; conditions: 500 g/ha, glass house 25° C., 3 weeks
Summary of the method: as §1

sugar beat = assay: Soil treatment test for upland field; assay type: in vivo; conditions: 500 g/ha, glass house 25° C., 3 weeks
Summary of the method: as §1

velvetleaf = assay: Soil treatment test for upland field; assay type: in vivo, Abutilon theophrasti; conditions: 500 g/ha, glass house 25° C., 3 weeks
Summary of the method: as §1

Row | SMILES | Effects Common lambsquarters (common lambsquartes) | Effect Young rice plant (young rice plant) | Effect Monochoria (monochoria) | Effects Annual bluegrass (annual bluegrass) | Effects Wheat (wheat) | Effects Solgum (solgum) | Effects Cotton (cotton) | Effects Soybean (soybean) | Effects Corn (corn) | Effect Flat sedge (flat sedge) | Effects Green foxtail (green foxtail) | Effects Blackgrass (blackgrass) | Effect Bulrush (bulrush) | Effects Large crabgrass (Large crabgrass) | Effects Barnyardgrass (barnyardgrass [1]) | Effect Barnyardgrass (barnyardgrass [2]) | Effects Livid amaranth (livid amaranth) | Effects Sugar beat (sugar beat) | Effects Velvetleaf (velvetleaf)
1 | CC(Oc1cccc(C(F)(F)F)c1)c1nc2cc(Cl)ccc2o1 (centres unmarked) [Compound 138] | 3 | 0 | 3 | 3 | 0 | 0 | 0 | 0 | 0 | 3 | 2 | 5 | 2 | 4 | 1 | 2 | 5 |  | 
2 | CCC(Oc1ccc(F)c(C(F)(F)F)c1)c1nc2cc(C#N)ccc2o1 (centres unmarked) [Compound 189] |  | 2 | 5 |  |  |  |  |  |  | 5 |  |  | 5 |  |  | 5 |  |  | 
3 | CCCC(Oc1ccc(F)c(C(F)(F)F)c1)c1nc2cc(F)c(F)cc2o1 (centres unmarked) [Compound 286] |  | 3 | 5 |  |  |  |  |  |  | 3 |  |  | 5 |  |  | 4 |  |  | 
4 | CCC(Oc1ccc(F)c(C(F)(F)F)c1)c1nc2cc(C#N)c(F)cc2o1 (centres unmarked) [Compound 346] |  | 2 | 5 |  |  |  |  |  |  | 5 |  |  | 5 |  |  | 5 |  |  | 
5 | CCCC(Oc1ccc(F)c(C(F)(F)F)c1)c1nc2cc(C#N)c(F)cc2o1 (centres unmarked) [Compound 348] |  | 2 | 5 |  |  |  |  |  |  | 4 |  |  | 4 |  |  | 4 |  |  | 
6 | CCC(Oc1cccc(C#N)c1)c1nc2cc(C#N)ccc2o1 (centres unmarked) [Compound 392] | 3 | 0 | 5 | 4 | 0 | 5 | 0 | 0 | 1 | 5 | 5 |  | 5 | 5 | 2 | 5 | 5 | 2 | 
7 | CCCC(Oc1cccc(C#N)c1)c1nc2cc(C#N)ccc2o1 (centres unmarked) [Compound 393] |  | 0 | 5 |  |  |  |  |  |  | 5 |  |  | 5 |  |  | 4 |  |  | 
8 | CCC(Oc1cccc(OC(F)(F)F)c1)c1nc2cc(C#N)ccc2o1 (centres unmarked) [Compound 396] | 5 | 2 | 5 | 5 | 2 | 3 |  | 2 | 2 | 5 | 5 | 5 | 5 | 5 | 5 | 2 | 5 | 5 | 5
